LC retention time data for 53 molecules are collected here from the RepoRT retention time repository (doi:10.1021/acs.analchem.2c02893).

The structures appear in SMILES notation.

This series in a line: RP, Thermo Scientific Acclaim RSLC 120 C18, 100 × 2.1 mm, 2.2 µm, 30 °C, 0.2 mL/min, estimated dead time 1.1 min; A: 90% water + 10% methanol + 0.01% formic acid + 5 mM ammonium formate, pH 3.61; B: methanol + 0.01% formic acid + 5 mM ammonium formate, pH 3.61; gradient (min/%B) 0/1 1/1 2/39 13/99.9 15/99.9 15.1/1 20.1/1. As to conditions: stereoisomer not certain.

`COC(=O)C(Cc1ccccc1)NC(=O)C(CC(=O)O)NCCC(C)(C)C` (stereo not drawn) [Neotam]: the LC retention time was 8.83 min. As to `COC(=O)C1=C(C)NC(C)=C(C(=O)OCCN(C)Cc2ccccc2)C1c1cccc([N+](=O)[O-])c1` (stereo not drawn) [Nicardipine], the LC retention time is 8.39 min.

As for `O=C(Nc1ccc([N+](=O)[O-])cc1Cl)c1cc(Cl)ccc1O` [Niclosamide], the LC retention time was 12.6 min. Then `COc1cc(OC)nc(NC(=O)NS(=O)(=O)c2ncccc2C(=O)N(C)C)n1` [Nicosulfuron], with 6.62 min. For `c1cncc(C2CCCN2)c1` (stereo not drawn) [Nicotine-Nor], the LC retention time was 2.44 min.

For the molecule `COC(=O)C1=C(C)NC(C)=C(C(=O)OC)C1c1ccccc1[N+](=O)[O-]` [Nifedipine], the LC retention time was 8.31 min. To `Cc1c(NC(=O)c2cccnc2)c(=O)n(-c2ccccc2)n1C` [Nifenazone] belongs 4.56 min; to `O=C(O)c1cccnc1Nc1cccc(C(F)(F)F)c1` [Niflumic acid], 9.86 min; to `O=C1Nc2ccc([N+](=O)[O-])cc2C(c2ccccc2F)=NC1O` (stereo not drawn) [Nifoxipam], 6.58 min. To `COC1CC(CC2CCC(C)C(C(C)C(=O)O)O2)OC2(OC(C)(C3CCC(C)(C4OC(C5OC(O)(CO)C(C)CC5C)CC4C)O3)CC2C)C1C` (stereo not drawn) [Nigericin] belongs 13.9 min. `CCN(CC)C(=O)c1cccnc1` [Nikethamide]: the LC retention time was 4.64 min. As for `COC(=O)C1=C(C#N)NC(C)=C(C(=O)OC(C)C)C1c1cccc([N+](=O)[O-])c1` (stereo not drawn) [Nilvadipine], the LC retention time is 10.3 min.

Regarding `O=[N+]([O-])c1cncn1CCN1CCOCC1` [Nimorazole], the LC retention time was 4.09 min. For the molecule `COC(=O)C1=C(C)NC(C)=C(C(=O)OCC(C)C)C1c1ccccc1[N+](=O)[O-]` (stereo not drawn) [Nisoldipine], the LC retention time is 10.6 min. Then `CCN(Cc1ccc(Cl)nc1)C(=C[N+](=O)[O-])NC` [Nitenpyram], with 3.9 min. To `Nc1ccc2c(c1)C(c1ccccc1)=NCC(=O)N2` [Nitrazepam- 7-Amino] belongs 4.78 min; to `O=C1CN=C(c2ccccc2)c2cc([N+](=O)[O-])ccc2N1` [Nitrazepam], 7.79 min.

As for `Cc1nnc2n1-c1ccc([N+](=O)[O-])cc1C(c1ccccc1)=NC2` [Nitrazolam], the LC retention time was 6.91 min. `O=[N+]([O-])c1ccc(Oc2ccc(Cl)cc2Cl)cc1` [Nitrofen]: the LC retention time is 12.1 min. To `O=C1CN(N=Cc2ccc([N+](=O)[O-])o2)C(=O)N1` [Nitrofurantoin] belongs 4.14 min; to `CC(C)OC(=O)c1cc(C(=O)OC(C)C)cc([N+](=O)[O-])c1` [Nitrothal-isopropyl], 12 min; to `CNC(=C[N+](=O)[O-])NCCSCc1csc(CN(C)C)n1` [Nizatidine], 2.96 min. Then `CN1Cc2c(N)cccc2C(c2ccccc2)C1` (stereo not drawn) [Nomifensine], with 5.42 min. On to `CCC(=O)OC(Cc1ccccc1)(c1ccccc1)C(C)CNC` (stereo not drawn) [Nordextropropoxyphene], for which the LC retention time is 7.84 min.

`C#CC1(OC(C)=O)CCC2C3CCC4=CC(=O)CCC4C3CCC21C` (stereo not drawn) [Norethisterone acetate]: the LC retention time was 10.8 min.

For `C#CC1(O)CCC2C3CCC4=CC(=O)CCC4C3CCC21C` (stereo not drawn) [Norethisterone], the LC retention time is 9.15 min. `CCn1cc(C(=O)O)c(=O)c2cc(F)c(N3CCNCC3)cc21` [Norfloxacin]: the LC retention time was 4.46 min. For the molecule `CNc1cnn(-c2cccc(C(F)(F)F)c2)c(=O)c1Cl` [Norflurazon], the LC retention time was 8.51 min. Consider `C#CC1(OC(C)=O)CCC2C3CCC4=CC(=NO)CCC4C3CCC21CC` (stereo not drawn) [Norgestimate], for which the LC retention time was 11.9 min. To `C#CC1(O)CCC2C3CCC4=CC(=O)CCC4C3CCC21CC` (stereo not drawn) [Norgestrel] belongs 10.2 min; to `COc1ccc2c(c1OC)C(=O)OC2C1c2c(cc3c(c2OC)OCO3)CCN1C` (stereo not drawn) [Noscapine], 6.96 min. To `O=C(NC(=O)c1c(F)cccc1F)Nc1ccc(OC(F)(F)C(F)OC(F)(F)F)c(Cl)c1` (stereo not drawn) [Novaluron] belongs 11.9 min; to `O=C(NC(=O)c1c(F)cccc1F)Nc1cc(Cl)c(OC(F)(F)C(F)C(F)(F)F)c(Cl)c1F` (stereo not drawn) [Noviflumuron], 12.7 min; to `COC1C(OC(N)=O)C(O)C(Oc2ccc3c(O)c(NC(=O)c4ccc(O)c(CC=C(C)C)c4)c(=O)oc3c2C)OC1(C)C` (stereo not drawn) [Novobiocin], 11.2 min. Take `OC(c1ccc(F)cc1)(c1cncnc1)c1ccccc1Cl` (stereo not drawn) [Nuarimol]: the LC retention time was 9.17 min.

On to `CC1C=CC=CCCC=CC=CC=CC=CC(OC2OC(C)C(O)C(N)C2O)CC2OC(O)(CC(O)C(O)CCC(O)CC(O)CC(O)CC(=O)OC(C)C(C)C1O)CC(O)C2C(=O)O` (stereo not drawn) [Nystatin], for which the LC retention time was 10.3 min.

As for `ON=Cc1cc[n+](COC[n+]2ccc(C=NO)cc2)cc1` [Obidoxime], the LC retention time was 3.03 min. For `CCCCCCCCc1ccc(OCCOCCO)cc1` [Octylphenol diethoxylates (OP2EO)_NH4 adduct], the LC retention time is 14.1 min. To `CCCCCCCCc1ccc(OCCO)cc1` [Octylphenol monoethoxylates (OP1EO)_NH4 adduct] belongs 12.4 min; to `Cc1cccc(C)c1N(C(=O)CCl)C1CCOC1=O` (stereo not drawn) [Ofurace], 7 min.

Turning to `Cc1cc2c(s1)Nc1ccccc1N=C2N1CCN(C)CC1` [Olanzapine], the LC retention time is 4.99 min. Then `CN(C)CCC=C1c2ccccc2COc2ccc(CC(=O)O)cc21` [Olopatadine], with 6.89 min. Then `O=C(O)c1cc(N=Nc2ccc(O)c(C(=O)O)c2)ccc1O` [Olsalazine], with 5.66 min; and `CNC(=O)CSP(=O)(OC)OC` [Omethoate], with 3.35 min; and `Cc1nccn1CC1CCc2c(c3ccccc3n2C)C1=O` (stereo not drawn) [Ondansetron], with 4.98 min. On to `OCCN1CCN(CCCN2c3ccccc3C=Cc3ccccc32)CC1` [Opipramol], for which the LC retention time is 7.83 min. To `CCN(CC)C(=O)SCc1ccccc1Cl` [Orbencarb] belongs 11.3 min.

In the case of `CCCCCCCCCCCC(CC1OC(=O)C1CCCCCC)OC(=O)C(CC(C)C)NC=O` (stereo not drawn) [Orlistat (Na)], the LC retention time was 14.6 min. Then `CNCCOC(c1ccccc1)c1ccccc1C` (stereo not drawn) [Orphenadrine-Nor (Tofenacin. Elamol)], with 7.54 min; and `Cc1ccccc1C(OCCN(C)C)c1ccccc1` (stereo not drawn) [Orphenadrine], with 7.44 min. Then `CCCN(CCC)c1c([N+](=O)[O-])cc(S(N)(=O)=O)cc1[N+](=O)[O-]` [Oryzalin], with 10.3 min; and `CCC(CC)OC1C=C(C(=O)O)CC(N)C1NC(C)=O` (stereo not drawn) [Oseltamivir-carboxylate], with 4.73 min; and `CCOC(=O)C1=CC(OC(CC)CC)C(NC(C)=O)C(N)C1` (stereo not drawn) [Oseltamivir], with 6.76 min.
